Like-named read-outs stand apart in the source and are kept apart here.
Tests used:
Type in all cases: cell-based
[1] = tested on: Candida albicans; assay: High resolution MIC synergy assay in TSB, Test Medium Condition 2 (ten-fold serial dilution)
Experimental: (§1) Synergism was determined by an industrially accepted method described by Kull, F. C.; Eisman, P. C.; Sylwestrowicz, H. D. and Mayer, R. L., in Applied Microbiology 9:538-541 (1961), using the ratio determined by the formula:
(§2) Qa/QA+Qb/QB=Synergy Index (“SI”)
(§3) When the sum of Qa/QA and Qb/QB is greater than one, antagonism is indicated. […] The lower the SI, the greater the synergy shown by that particular mixture. The minimum inhibitory concentration (MIC) of a microbicide is the lowest concentration tested under a specific set of conditions that prevents the growth of added microorganisms.
(§4) Synergism of combinations of microbicides was determined using standard MIC assays in trypticase soy broth medium (“TSB” medium). In this method, a range of concentrations was tested by preparing two-fold serial dilutions of the compound tested in 96-well microtiter plates. All liquid media transfers were performed with calibrated single or multichannel digital pipettors. Stock solutions of the microbicides were prepared in appropriate solvents and added to the TSB medium. All subsequent dilutions in plates were made using an automated liquid handling system. Final concentrations of microbicides were obtained by making two-fold serial dilutions in two directions in the microtiter plate. […] A cell suspension of either Aspergillus niger (A. niger, ATCC #16404) or Candida albicans (C. albicans, ATCC #10231), adjusted to provide 1×10^5 cells per mL in each well, was added to the microtiter plates.
(§5) In a manner similar to that described above for Test Medium Condition 1, the synergism of combinations of microbicides determined in TSB by conducting high resolution MIC assays in the presence of various concentrations of MI. High resolution MICs were determined by adding varying amounts of microbicide to one column of a microtitre plate and doing subsequent […] dilutions using an automated liquid handling system to obtain a series of endpoints ranging from 2 ppm to 10,000 ppm active ingredient.

[2] = tested on: Aspergillus niger; assay: as above
Experimental: as §1, §2, §3, §4, §5

[3] = tested on: Aspergillus niger (ATCC #16404); assay: MIC synergy assay in TSB, Test Medium Condition 1 (two-fold serial dilution); settings: ATCC16404, 168 h
Experimental: as §1, §2, §3
Synergism of combinations of microbicides was determined using standard MIC assays in trypticase soy broth medium (“TSB” medium). In this method, a range of concentrations was tested by preparing two-fold serial dilutions of the compound tested in 96-well microtiter plates. All liquid media transfers were performed with calibrated single or multichannel digital pipettors. Stock solutions of the microbicides were prepared in appropriate solvents and added to the TSB medium. All subsequent dilutions in plates were made using an automated liquid handling system. Final concentrations of microbicides were obtained by making two-fold serial dilutions in two directions in the microtiter plate. […]

[4] = 72 h, read-out: QA, MIC of Compound A acting alone

SMILES | MIC [1, 4] [µg/mL] | MIC [2, 4] [µg/mL] | MIC ([3]; read-out: QA, MIC of Compound A acting alone) [µg/mL] | MIC ([1]; C. albicans, TSB, high resolution MIC, 25° C. 72 hours, read-out: QB, MIC of Compound B acting alone) [µg/mL] | MIC ([2]; A. niger, TSB, high resolution MIC, 25° C. 72 hours, read-out: QB, MIC of Compound B acting alone) [µg/mL] | MIC ([3]; A. niger, TSB, two-fold serial dilution, 25° C. one week, read-out: QB, MIC of Compound B acting alone) [µg/mL]
Cn1sccc1=O [MI, 2-methyl-3-isothiazolone] | 100 | 150 | 250 |  |  | 
CCCOC(=O)c1ccc(O)cc1 [PP, propyl para-hydroxybenzoate] |  |  |  | 300 | 200 | 594

Source: patent US6511673B1, “Microbicidal composition” (Rohm and Haas Company, priority 2000, dated 2003)
